Values joined by “and” are separate entries in the source; they are usually repeats but may differ in a detail not shown here. Equal values may be shown once. “Also recorded” adds a separate entry of the source.
Experiments:
[1] = system: mouse model of ischemic stroke (tMCAO); assay: Infarct volume and hemispheric swelling (TTC) 24 h after tMCAO; type: in vivo
mice = conditions: mouse, in vivo
Procedure: Post-stroke administration of Closantel in mice reduced ischemic cerebral infarction size and brain swelling in a dose-dependent manner. However, we detected Closantel toxicity in mice at higher doses (~25 mg/kg), consistent with reported adverse effects in humans, including weakness, visual impairment, and blindness[72],[73]. The in vitro nanomolar-potency pan-WNK-kinase inhibitor WNK463 was developed as an antihypertensive drug[74]. […] Although the causes of these adverse effects remain unclear, they also discouraged efficacy testing of WNK463 at higher doses.

NKCC1 = assay: 86Rb+ uptake assay for NKCC1 activity in HEK-293 cells; type: cell-based; set-up: key to 86Rb+ uptake: 86Rb+ uptake in CPM per mg protein; conditions: for 86Rb+ uptake: Fig 3b, NKCC1 + Bum (0.1 mM), replicates, listed as Bum
Procedure: (§1) Thirty-six hours post transfection, cells were exposed for 30 min to either control isotonic conditions or hypotonic low [Cl^−] conditions (to activate the SPAK/OSR1 pathway), and then treated for an additional 30 min in the same conditions with the indicated ZT-1a concentrations in the presence of 1 mM ouabain and 0.1 mM bumetanide. Ten-minute ^86Rb^+ uptake values were quantified by scintillation counting, normalized per mg protein for each condition, and plotted for both isotonic and hypotonic conditions. ***p < 0.001; **p < 0.01; *p < 0.05; ns—nonsignificant [by one-way ANOVA with post hoc testing (n = 6, error bars represent the mean ± SEM)]. b ^86Rb^+ uptake assays in the presence of ZT-1a measure transport activity of NKCC1. […] Thirty-six hours post transfection, cells were exposed for 30 min to either control isotonic conditions or hypotonic low [Cl^−] conditions (to activate the SPAK/OSR1 pathway), and then treated in the same conditions for an additional 30 min with 10 µM ZT-1a or 0.1 mM bumetanide (Bum) in the presence of 1 mM ouabain (Na^+/K^+-ATPase inhibitor). ^86Rb^+ uptake was allowed to proceed for 10 min and was then quantified by scintillation counting. ^86Rb^+ uptake CPMs were normalized per mg protein and plotted for both isotonic and hypotonic conditions. […] Thirty-six hours post transfection, cells were exposed for 30 min to either control isotonic conditions or hypotonic low [Cl^−] conditions (to activate the SPAK/OSR1 pathway), and then treated for an additional 30 min in the same conditions with the indicated ZT-1a concentrations in the presence of 1 mM ouabain. Ten-minute ^86Rb^+ uptake values were quantified by scintillation counting, normalized per mg protein for each condition, and plotted for both isotonic and hypotonic conditions. ***p < 0.001; **p < 0.01; *p < 0.05; ns—nonsignificant [by one-way ANOVA with post hoc testing (n = 6, error bars represent the mean ± SEM)].
(§2) This stimulating medium was then removed and replaced with isotonic medium containing inhibitors plus 2 µCi/ml ^86Rb^+. After incubation for 10 min at 37 °C, cells were rapidly washed three times with the respective ice-cold nonradioactive medium. Washed cells were lysed in 300 µl of ice-cold lysis buffer and ^86Rb^+ uptake was quantitated by liquid scintillation counting (PerkinElmer).

HEK-293 cells = assay: 86Rb+ uptake assay in empty-vector-transfected HEK-293 cells; type: cell-based, human; set-up: key: 86Rb+ uptake in CPM per mg protein; conditions: Fig 3b, Empty V + Bum (0.1 mM), ouabain, replicates, listed as Bum
Procedure: as §1, §2

human fibroblast cells = assay: Cell volume measurement (calcein-AM) under hyperosmotic stress, human fibroblasts; conditions: hypertonic 515 mOsm; BMT or ZT-1a
[2] = system: mouse primary cortical neurons; assay: Cell volume measurement (calcein-AM) under hyperosmotic stress, primary cortical neurons

CC(C)(C)NC(=O)c1cncn1C1CCN(c2ccc(-c3nnc(C(F)(F)F)o3)cn2)CC1 [WNK463]
Infarct volume (mm3) ([1]; Fig 9b, group WNK463, individual mice): 59.9 mm3 and 47.6 mm3 and 101.01 mm3 and 100.21 mm3 | Hemisphere swelling (%) ([1]; Fig 9c, group WNK463, individual mice): 22.63% and 14.43% and 26.7% and 16.53% | infarct volume and hemispheric swelling (neuroprotection) ([1]; WNK463 2.5 mg/kg, 24 h post reperfusion, 2.5 mg/kg): reduced neither infarct volume nor hemispheric swelling; also recorded: not neuroprotective | adverse effects in mice (mice): ataxia and breathing difficulties

CCCCNc1cc(C(=O)O)cc(S(N)(=O)=O)c1Oc1ccccc1 [bumetanide, reference compound]
K+ flux of cells transfected with empty vector or NKCC1 wt cDNA (NKCC1; 0.1 mM bumetanide, isotonic or hypotonic low Cl−): significantly decreased K^+ flux | 86Rb+ uptake (NKCC1; Hypotonic low Cl-): 9502.3 and 11310.4 and 9641.4 and 10421.5 and 10765.4 and 9047.7 | 86Rb+ uptake (NKCC1; Isotonic control): 1674.6 and 1506.3 and 1758.1 and 1840.4 and 1694.7 and 1729.5 | 86Rb+ uptake (HEK-293 cells; Hypotonic low Cl-): 1107.6 and 1237.8 and 1137.4 and 1021.4 and 1200.9 and 1076.2 | 86Rb+ uptake (HEK-293 cells; Isotonic control): 803.5 and 942.1 and 914.8 and 786.4 and 978.4 and 901.5 | regulatory volume increase (RVI) in human fibroblast cells (human fibroblast cells): absence of RVI | Cell water (relative change) ([2]; Fig 5b trace, Time 1.00403): 0.9843 relative change | Cell water (relative change) ([2]; Fig 5b trace, Time 2.00427): 1.007 relative change | Cell water (relative change) ([2]; Fig 5b trace, Time 3.00425): 1.002 relative change | Cell water (relative change) ([2]; Fig 5b trace, Time 4.00423): 1.004 relative change | Cell water (relative change) ([2]; Fig 5b trace, Time 5.0042): 1.002 relative change | Cell water (relative change) ([2]; Fig 5b trace, Time 6.00445): 0.7352 relative change | Cell water (relative change) ([2]; Fig 5b trace, Time 7.00442): 0.6913 relative change | Cell water (relative change) ([2]; Fig 5b trace, Time 8.00435): 0.6745 relative change | Cell water (relative change) ([2]; Fig 5b trace, Time 9.00452): 0.6038 relative change | Cell water (relative change) ([2]; Fig 5b trace, Time 10.0046): 0.5839 relative change | Cell water (relative change) ([2]; Fig 5b trace, Time 11.0045): 0.5893 relative change | Cell water (relative change) ([2]; Fig 5b trace, Time 12.0045): 0.5422 relative change | Cell water (relative change) ([2]; Fig 5b trace, Time 13.0045): 0.523 relative change | Cell water (relative change) ([2]; Fig 5b trace, Time 14.0045): 0.4977 relative change | Cell water (relative change) ([2]; Fig 5b trace, Time 15.0047): 0.5231 relative change | Cell water (relative change) ([2]; Fig 5b trace, Time 16.0047): 0.4947 relative change | Cell water (relative change) ([2]; Fig 5b trace, Time 17.0047): 0.4924 relative change | Cell water (relative change) ([2]; Fig 5b trace, Time 18.0047): 0.4545 relative change | Cell water (relative change) ([2]; Fig 5b trace, Time 19.0049): 0.4799 relative change | Cell water (relative change) ([2]; Fig 5b trace, Time 20.0049): 0.4586 relative change | Cell water (relative change) ([2]; Fig 5b trace, Time 21.0048): 0.4488 relative change | Cell water (relative change) ([2]; Fig 5b trace, Time 22.0048): 0.4846 relative change | Cell water (relative change) ([2]; Fig 5b trace, Time 23.005): 0.4766 relative change | Cell water (relative change) ([2]; Fig 5b trace, Time 24.0048): 0.4819 relative change | Cell water (relative change) ([2]; Fig 5b trace, Time 25.005): 0.4751 relative change | Cell water (relative change) ([2]; Fig 5b trace, Time 26.0053): 0.6008 relative change | Cell water (relative change) ([2]; Fig 5b trace, Time 27.005): 0.6725 relative change | Cell water (relative change) ([2]; Fig 5b trace, Time 28.005): 0.7341 relative change | Cell water (relative change) ([2]; Fig 5b trace, Time 29.0051): 0.8379 relative change | Cell water (relative change) ([2]; Fig 5b trace, Time 30.005): 0.9275 relative change | Cell water (relative change) ([2]; Fig 5b trace, Time 31.005): 0.981 relative change | Cell water (relative change) ([2]; Fig 5b trace, Time 32.005): 1.048 relative change | Cell water (relative change) ([2]; Fig 5b trace, Time 33.0052): 1.114 relative change | Cell water (relative change) ([2]; Fig 5b trace, Time 34.0052): 1.157 relative change | Cell water (relative change) ([2]; Fig 5b trace, Time 35.0052): 1.203 relative change | Cell water (relative change) ([2]; Time 1.0036): 0.9714 | Cell water (relative change) ([2]; Time 2.0038): 1.0042 | Cell water (relative change) ([2]; Time 3.0038): 1.0139 | Cell water (relative change) ([2]; Time 4.0037): 0.9906 | Cell water (relative change) ([2]; Time 5.0037): 1.0199 | Cell water (relative change) ([2]; Time 6.0037): 0.4476 | Cell water (relative change) ([2]; Time 7.0039): 0.4233 | Cell water (relative change) ([2]; Time 8.0040): 0.4625 | Cell water (relative change) ([2]; Time 9.0042): 0.4683 | Cell water (relative change) ([2]; Time 10.0039): 0.4401 | Cell water (relative change) ([2]; Time 11.0039): 0.4457 | Cell water (relative change) ([2]; Time 12.0039): 0.4507 | Cell water (relative change) ([2]; Time 13.0041): 0.4223 | Cell water (relative change) ([2]; Time 14.0041): 0.4334 | Cell water (relative change) ([2]; Time 15.0040): 0.4490 | Cell water (relative change) ([2]; Time 16.0040): 0.4184 | Cell water (relative change) ([2]; Time 17.0040): 0.3961 | Cell water (relative change) ([2]; Time 18.0045): 0.4241 | Cell water (relative change) ([2]; Time 19.0042): 0.4174 | Cell water (relative change) ([2]; Time 20.0042): 0.4139 | Cell water (relative change) ([2]; Time 21.0042): 0.4233 | Cell water (relative change) ([2]; Time 22.0041): 0.4177 | Cell water (relative change) ([2]; Time 23.0044): 0.4195 | Cell water (relative change) ([2]; Time 24.0044): 0.4281 | Cell water (relative change) ([2]; Time 25.0043): 0.4058 | Cell water (relative change) ([2]; Time 26.0043): 0.5463 | Cell water (relative change) ([2]; Time 27.0043): 0.6294 | Cell water (relative change) ([2]; Time 28.0045): 0.7254 | Cell water (relative change) ([2]; Time 29.0044): 0.8393 | Cell water (relative change) ([2]; Time 30.0044): 0.8966 | Cell water (relative change) ([2]; Time 31.0046): 1.0008 | Cell water (relative change) ([2]; Time 32.0046): 1.0678 | Cell water (relative change) ([2]; Time 33.0046): 1.1243 | Cell water (relative change) ([2]; Time 34.0045): 1.1834 | Cell water (relative change) ([2]; Time 35.0045): 1.2456 | regulatory volume increase (RVI) response of primary cortical neurons ([2]; hyperosmotic stress 370 mOsm, ZT-1a 3 μM, BMT 10 μM): no RVI response | cell shrinkage of primary cortical neurons ([2]; hypertonic 370 mOsm/kg H2O, earlier manuscript version quoted in peer-review file): 86% | initial rate of cell shrinkage ([2]; hypertonic stress, earlier manuscript version quoted in peer-review file): 45 ± 4 % vol/min | neurons exhibiting RVI / cells analysed ([2]; hypertonicity-mediated osmotic shrinkage, three cultures): 0/46

— article PMC6946680, “Modulation of brain cation-Cl^− cotransport via the SPAK kinase inhibitor ZT-1a” (Nature Communications, 2020)
